The target in one assay is BRD4 protein (Homo sapiens (Human), UniProt O60885). In words: BRD4 protein degradation inducing action in cancer cells (immunofluorescence, Operetta). It is filed as cell-based. The following applies: LNCaP cells, 6 hr treatment, fluorescence intensity. The procedure, abridged: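 LNCaP prostate cancer cells in 10% FBS/RPMI1640 were exposed to compound for 6 hr at 37° C, then fixed, permeabilized and immunostained for BRD4 with Alexa Fluor 488 or 546 secondary antibodies plus Hoechst nuclear stain. Fluorescence was read by high-content imaging; DC50 is the concentration giving 50% of untreated signal, interpolated linearly between bracketing points.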

In assay [1] the test system is human prostate cancer LNCaP cells. In words: Cytotoxic action on cancer cells (WST-8, 96 hr). Type of assay: cell-based. The following applies: Homo sapiens, LNCaP, 96 h, read-out: LNCaP cytotoxic activity: IC50. The procedure, abridged:
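Viable cell number, measured by WST-8, is compared with compound-free cultures after treatment. Cells are kept in 10% FBS/RPMI1640 at 37° C under 5% CO2, and IC50 comes from the line joining the two survival rates that bracket 50%.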
(In general: Formazan colour is commonly taken as a measure of viable cells.)

The structures appear in SMILES notation.

This note sets out measurements from US11542273B2, “Amide compound having bet proteolysis-inducing action and medicinal application thereof” (MITSUBISHI TANABE PHARMA CORPORATION, priority 2018, dated 2023).

For `COC(=O)C[C@@H]1N=C(c2ccc(-c3cncc(C(=O)N[C@H](C(=O)N4C[C@H](O)C[C@H]4C(=O)N[C@@H](C)c4ccc(-c5scnc5C)cc4)C(C)(C)C)n3)cc2)c2c(sc(C)c2C)-n2c(C)nnc21` [Example 167, methyl [(6S)-4-{4-[6-({(2S)-1-[(2S,4R)-4-hydroxy-2-({(1S)-1-[4-(4-methyl-1,3-thiazol-5-yl)phenyl]ethyl}carbamoyl)pyrrolidin-1-yl]-3,3-dimethyl-1-oxobutan-2-yl}carbamoyl)pyrazin-2-yl]phenyl}-2,3,9-trimethyl-6H-thieno[3,2-f][1,2,4]triazolo[4,3-a][1,4]diazepin-6-yl]acetate], the half-maximal degradation concentration (DC50) (usually the concentration giving 50% degradation) at BRD4 protein worked out at 0.28 nM. Besides, the IC50 (in general, the concentration at which inhibition is half-maximal) in assay [1] was determined as 0.14 nM.
On BRD4 protein, `COC(=O)C[C@@H]1N=C(c2ccc(-c3ccc4oc(C(=O)N[C@H](C(=O)N5C[C@H](O)C[C@H]5C(=O)NCc5ccc(-c6scnc6C)cc5)C(C)(C)C)nc4c3)cc2)c2c(sc(C)c2C)-n2c(C)nnc21` [Example 171, methyl [(6S)-4-{4-[2-({(2S)-1-[(2S,4R)-4-hydroxy-2-({[4-(4-methyl-1,3-thiazol-5-yl)phenyl]methyl}carbamoyl)pyrrolidin-1-yl]-3,3-dimethyl-1-oxobutan-2-yl}carbamoyl)-1,3-benzoxazol-5-yl]phenyl}-2,3,9-trimethyl-6H-thieno[3,2-f][1,2,4]triazolo[4,3-a][1,4]diazepin-6-yl]acetate] registered a DC50 of 0.16 nM. In addition, in assay [1], the half-maximal inhibitory concentration (IC50) came to 0.08 nM.
On the same counts, the results for `COC(=O)C[C@@H]1N=C(c2ccc(-n3ccc(C(=O)N[C@H](C(=O)N4C[C@H](O)C[C@H]4C(=O)N[C@@H](C)c4ccc(-c5scnc5C)cc4)C(C)(C)C)n3)cc2)c2c(sc(C)c2C)-n2c(C)nnc21` [Example 172, methyl [(6S)-4-{4-[3-({(2S)-1-[(2S,4R)-4-hydroxy-2-({(1S)-1-[4-(4-methyl-1,3-thiazol-5-yl)phenyl]ethyl}carbamoyl)pyrrolidin-1-yl]-3,3-dimethyl-1-oxobutan-2-yl}carbamoyl)-1H-pyrazol-1-yl]phenyl}-2,3,9-trimethyl-6H-thieno[3,2-f][1,2,4]triazolo[4,3-a][1,4]diazepin-6-yl]acetate] are 0.37 nM and 0.36 nM.
On the same counts, the results for `COC(=O)C[C@@H]1N=C(c2ccc(-c3cc(C(=O)N[C@H](C(=O)N4C[C@H](O)C[C@H]4C(=O)N[C@@H](C)c4ccc(-c5scnc5C)cc4)C(C)(C)C)cc(F)c3F)cc2)c2c(sc(C)c2C)-n2c(C)nnc21` [Example 173, methyl {(6S)-4-[2′,3′-difluoro-5′-({(2S)-1-[(2S,4R)-4-hydroxy-2-({(1S)-1-[4-(4-methyl-1,3-thiazol-5-yl)phenyl]ethyl}carbamoyl)pyrrolidin-1-yl]-3,3-dimethyl-1-oxobutan-2-yl}carbamoyl)[1,1′-biphenyl]-4-yl]-2,3,9-trimethyl-6H-thieno[3,2-f][1,2,4]triazolo[4,3-a][1,4]diazepin-6-yl}acetate] are 0.53 nM and 0.53 nM.
On the same counts, the results for `COC(=O)C[C@@H]1N=C(c2ccc(-c3c(F)ccc(C(=O)N[C@H](C(=O)N4C[C@H](O)C[C@H]4C(=O)N[C@@H](C)c4ccc(-c5scnc5C)cc4)C(C)(C)C)c3F)cc2)c2c(sc(C)c2C)-n2c(C)nnc21` [Example 174, methyl {(6S)-4-[2′,6′-difluoro-3′-({(2S)-1-[(2S,4R)-4-hydroxy-2-({(1S)-1-[4-(4-methyl-1,3-thiazol-5-yl)phenyl]ethyl}carbamoyl)pyrrolidin-1-yl]-3,3-dimethyl-1-oxobutan-2-yl}carbamoyl)[1,1′-biphenyl]-4-yl]-2,3,9-trimethyl-6H-thieno[3,2-f][1,2,4]triazolo[4,3-a][1,4]diazepin-6-yl}acetate] are 0.31 nM and 0.37 nM.
On to `COC(=O)C[C@@H]1N=C(c2ccc(-c3cc(F)cc(C(=O)N[C@H](C(=O)N4C[C@H](O)C[C@H]4C(=O)N[C@@H](C)c4ccc(-c5scnc5C)cc4)C(C)(C)C)c3F)cc2)c2c(sc(C)c2C)-n2c(C)nnc21` [Example 175, methyl {(6S)-4-[2′,5′-difluoro-3′-({(25)-1-[(2S,4R)-4-hydroxy-2-({(1S)-1-[4-(4-methyl-1,3-thiazol-5-yl)phenyl]ethyl}carbamoyl)pyrrolidin-1-yl]-3,3-dimethyl-1-oxobutan-2-yl}carbamoyl)[1,1′-biphenyl]-4-yl]-2,3,9-trimethyl-6H-thieno[3,2-f][1,2,4]triazolo[4,3-a][1,4]diazepin-6-yl}acetate], for which the DC50 at BRD4 protein is 0.5 nM. In addition, in assay [1], the IC50 was 0.3 nM.
On the same counts, the results for `COC(=O)C[C@@H]1N=C(c2ccc(-c3ccc(C(=O)N[C@H](C(=O)N4C[C@H](O)C[C@H]4C(=O)N[C@@H](C)c4ccc(-c5scnc5C)cc4)C(C)(C)C)c(F)c3F)cc2)c2c(sc(C)c2C)-n2c(C)nnc21` [Example 176, methyl {(6S)-4-[2′,3′-difluoro-4′-({(2S)-1-[(2S,4R)-4-hydroxy-2-({(1S)-1-[4-(4-methyl-1,3-thiazol-5-yl)phenyl]ethyl}carbamoyl)pyrrolidin-1-yl]-3,3-dimethyl-1-oxobutan-2-yl}carbamoyl)[1,1′-biphenyl]-4-yl]-2,3,9-trimethyl-6H-thieno[3,2-f][1,2,4]triazolo[4,3-a][1,4]diazepin-6-yl}acetate] are 0.44 nM and 0.39 nM.
On the same counts, the results for `COC(=O)C[C@@H]1N=C(c2ccc(N3CCN(c4cccc(C(=O)N[C@H](C(=O)N5C[C@H](O)C[C@H]5C(=O)N[C@@H](C)c5ccc(-c6scnc6C)cc5)C(C)(C)C)n4)CC3)cc2)c2c(sc(C)c2C)-n2c(C)nnc21` [Example 177, methyl [(6S)-4-(4-{4-[6-({(2S)-1-[(2S,4R)-4-hydroxy-2-({(1S)-1-[4-(4-methyl-1,3-thiazol-5-yl)phenyl]ethyl}carbamoyl)pyrrolidin-1-yl]-3,3-dimethyl-1-oxobutan-2-yl}carbamoyl)pyridin-2-yl]piperazin-1-yl}phenyl)-2,3,9-trimethyl-6H-thieno[3,2-f][1,2,4]triazolo[4,3-a] [1,4]diazepin-6-yl]acetate] are 0.23 nM and 0.36 nM.
On the same counts, the results for `COC(=O)C[C@@H]1N=C(c2ccc(-c3ccccc3OCC(=O)N[C@H](C(=O)N3C[C@H](O)C[C@H]3C(=O)N[C@@H](C)c3ccc(-c4scnc4C)cc3)C(C)(C)C)cc2)c2c(sc(C)c2C)-n2c(C)nnc21` [Example 178, methyl [(6S)-4-{2′-[2-({(2S)-1-[(2S,4R)-4-hydroxy-2-({(1S)-1-[4-(4-methyl-1,3-thiazol-5-yl)phenyl]ethyl}carbamoyl)pyrrolidin-1-yl]-3,3-dimethyl-1-oxobutan-2-yl}amino)-2-oxoethoxy][1,1′-biphenyl]-4-yl}-2,3,9-trimethyl-6H-thieno[3,2-f][1,2,4]triazolo[4,3-a][1,4]diazepin-6-yl]acetate] are 0.8 nM and 0.68 nM.
The compound `COC(=O)C[C@@H]1N=C(c2ccc(-c3ccc4sc(C(=O)N[C@H](C(=O)N5C[C@H](O)C[C@H]5C(=O)N[C@@H](C)c5ccc(-c6scnc6C)cc5)C(C)(C)C)nc4c3)cc2)c2c(sc(C)c2C)-n2c(C)nnc21` [Example 179, methyl [(6S)-4-{4-[2-({(2S)-1-[(2S,4R)-4-hydroxy-2-({(1S)-1-[4-(4-methyl-1,3-thiazol-5-yl)phenyl]ethyl}carbamoyl)pyrrolidin-1-yl]-3,3-dimethyl-1-oxobutan-2-yl}carbamoyl)-1,3-benzothiazol-5-yl]phenyl}-2,3,9-trimethyl-6H-thieno[3,2-f][1,2,4]triazolo[4,3-a][1,4]diazepin-6-yl]acetate] displayed a DC50 on BRD4 protein of 0.11 nM. Further, the 50% inhibitory concentration (IC50) in assay [1] was determined as 0.21 nM.
`COC(=O)C[C@@H]1N=C(c2ccc(-c3ccc4nc(C(=O)N[C@H](C(=O)N5C[C@H](O)C[C@H]5C(=O)N[C@@H](C)c5ccc(-c6scnc6C)cc5)C(C)(C)C)oc4c3)cc2)c2c(sc(C)c2C)-n2c(C)nnc21` [Example 181, methyl [(6S)-4-{4-[2-({(2S)-1-[(2S,4R)-4-hydroxy-2-({(1S)-1-[4-(4-methyl-1,3-thiazol-5-yl)phenyl]ethyl}carbamoyl)pyrrolidin-1-yl]-3,3-dimethyl-1-oxobutan-2-yl}carbamoyl)-1,3-benzoxazol-6-yl]phenyl}-2,3,9-trimethyl-6H-thieno[3,2-f][1,2,4]triazolo[4,3-a][1,4]diazepin-6-yl]acetate] had a DC50 at BRD4 protein of 0.031 nM. Further, in assay [1], the IC50 was determined as 0.037 nM.
On the same counts, the results for `COC(=O)C[C@@H]1N=C(c2ccc(-c3ccc(C(=O)N[C@H](C(=O)N4C[C@H](O)C[C@H]4C(=O)N[C@@H](C)c4ccc(-c5scnc5C)cc4)C(C)(C)C)c(C)c3)cc2)c2c(sc(C)c2C)-n2c(C)nnc21` [Example 183, methyl {(6S)-4-[4′-({(2S)-1-[(2S,4R)-4-hydroxy-2-({(1S)-1-[4-(4-methyl-1,3-thiazol-5-yl)phenyl]ethyl}carbamoyl)pyrrolidin-1-yl]-3,3-dimethyl-1-oxobutan-2-yl}carbamoyl)-3′-methyl[1,1′-biphenyl]-4-yl]-2,3,9-trimethyl-6H-thieno[3,2-f][1,2,4]triazolo[4,3-a][1,4]diazepin-6-yl}acetate] are 0.93 nM and 1.5 nM.
On the same counts, the results for `COC(=O)C[C@@H]1N=C(c2ccc(-c3ccc(CCC(=O)N[C@H](C(=O)N4C[C@H](O)C[C@H]4C(=O)N[C@@H](C)c4ccc(-c5scnc5C)cc4)C(C)(C)C)s3)cc2)c2c(sc(C)c2C)-n2c(C)nnc21` [Example 188, methyl [(6S)-4-(4-{5-[3-({(2S)-1-[(2S,4R)-4-hydroxy-2-({(1S)-1-[4-(4-methyl-1,3-thiazol-5-yl)phenyl]ethyl}carbamoyl)pyrrolidin-1-yl]-3,3-dimethyl-1-oxobutan-2-yl}amino)-3-oxopropyl]thiophen-2-yl}phenyl)-2,3,9-trimethyl-6H-thieno[3,2-f][1,2,4]triazolo[4,3-a][1,4]diazepin-6-yl]acetate] are 0.26 nM and 0.042 nM.
